Assays:
[1] = Experimental: A total of 10 CT-scans were performed at 30 min, 1 h 15 min, 1 h 30 min, 1 h 45 min, 2 h, 3 h, 4 h, 8 h, 1 day (24 h) and 7 days after injections of the dermal filler.
The X-ray computed tomography (CT) acquisitions were performed with the Computed Tomography Scanner BrightSpeed 16 (General Electric). In order to measure the volume, the mean density and visualize the 3D (Three-dimensional) shape of the dermal fillers SC injected, in vivo CT-scans were performed 1 h 15 (±5 min), 1 h 30 (±10 min), 1 h 45 (±10 min), 2 h (±10 min), 3 h (±15 min), 4 h (±15 min), 8 h (±30 min), 24 h (Day 1+1 h) and 7 days after the test item injections.
For each CT-scan, the animal was positioned in dorsal recumbency (ventral images) and acquisitions were centered on the injection sites. The parameters of the CT-scan are described in Table 4.
The CT acquisitions were analyzed with Avizo version 9.2.0 software. […] To achieve this goal, the evolution of the following parameters was observed over time: • the volume of each nodule, • the mean density of each nodule, and • the 3D shape of each nodule by visualization on the 3D model of each nodule at each time point. Segmentation
An image segmentation was performed on each CT acquisition using standard reconstruction. First, a manual pre-segmentation was performed around each nodule in order to roughly isolate the voxels corresponding to dermal filler. An interpolation procedure was performed to obtain a contour for each slice and define a Region of Interest (ROI). Second, an automatic segmentation was applied on the ROI previously defined using a global grey level thresholding procedure. The relevant threshold allowing the isolation of the dermal filler products was defined on the basis of the Hounsfield Unit (HU) histogram, following the Otsu method to accurately define the ROI. […] Then, a 3D model of these selected voxels was obtained allowing calculation of the total volume (in mm^3) of each nodule of non-degraded dermal filler.
The volume (in mm^3) of the ROI corresponding to each nodule of dermal filler and the mean density (in HU) of each nodule were calculated at each time point.
In order to assess the evolution over time of the elimination of SC-injected dermal filler, the mean volume±standard deviation (SD) and the average of mean density±SD were calculated for each dermal filler injection of the right and left flank separately at each different time points. The evolution of the mean volumes, the mean volume variations and the average of the mean densities of each dermal filler were calculated.

[2] = Semi-quantitative histopathologic analysis of injection sites (Example 1); details: for AM Degradation / Cell or Tissue Degeneration / Encapsulation / Fatty Infiltrate / Fibrin / Fibroblasts / Fibrosis / Giant Cells / Hemorrhage / Lymphocytes / Macrophages / Necrosis / Neovascularization / Plasma Cells / Polymorphonuclear Cells / Tissue Ingrowth / Tissue Integration: mean score, day 7
Experimental: After complete fixation in 10% NBF and micro-CT analysis, the 30 test sites and the TO site, were cut into five blocks. The blocks were decalcified for 48 hours with formic acid and then dehydrated in alcohol solutions of increasing concentration, cleared in xylene and embedded in paraffin. […] Finally, the blocks were placed in HCl for 15 min and the blocks could then be cut to obtain slides for analysis.
The section was stained with safranin-hematoxylin-cosin (SHE). The same procedure was used for the preparation of the TO site used for structural characterization and evaluation of the degradation.
Qualitative and semi-quantitative histopathologic evaluation of the local tissue effects and the inflammatory response at injection sites was conducted according using standard methods.
Evaluation of local tissue effects was based on the qualitative and semi-quantitative histopathologic evaluation: mean score comparison of the semi-quantitative parameters and comparison of the qualitative histopathologic findings.

[3] = Electron microscopy (SEM) of filler particles isolated from test sites (Example 1); details: for particle degradation (change in particle size or surfaces) by EM / 25-45 μm / <25 μm / >45 μm / D-ratio: day 7; for Mean diameter: filler particles by EM, seven days after filler injection; for 25-45 μm / <25 μm / >45 μm: particle size distribution by EM; for D-ratio: shape index, 1=round, EM
Experimental: EM analysis is used, for example, to analyze morphology and the particle size distribution of Calcium Hydroxyapatite (CaHA) particles in tissue integrated particles. […] The biopsy material underwent an enzymatic digestion with protease (Trypsin without EDTA, for […], at 37° C.) after fixation in 10% neutral buffered formalin (NBF). Digested sample was centrifuged, and microscopy samples of the supernatant as well as the pellet were prepared and subjected to EM analysis at room temperature.
Samples were analyzed using a Scanning Electron Microscope (SEM) (Phenom Pure G3, ThermoFisher, with Phenom Pro Suite application system, ImageJ (version 1.51j8) software and OriginPro 2018G (64-bit) SR1 b9.5.1.195 software for analysis and data processing). To evaluate the changes in CaHA microparticle characteristics the samples were analyzed with the Scanning Electron Microscopy (SEM) and evaluated for morphology as well as for the size and shape of the material. Statistical analysis of particle size distribution (PSD) would show changes of the material.
SEM images were taken from three fractions per sample to determine the particle- and volume-weighted size distributions. Up to 400 SEM images per fraction were taken at a magnification of ×500 and further processed by automated image analyzing software ImageJ (version 1.51j8). Image processing took place for every fraction image to determine selected parameters. e.g., Feret diameter and aspect ratio (D-ratio).

[4] = day 7 after injection; 1.5 mL into 0.5 mL filler site; vs untreated filler
Experimental: The dermal filler (Radiesse® calcium hydroxylapatite labelled as Radiesse® Volume Advantage 1.5 cc, syringes) was injected in the superficial part of the subcutaneous compartment in the abdominal skin of three pigs (female Swine (Sus scrofa domesticus) Landrace-Large White cross from SCEA Poraubennes, France, having body weight between 56 to 58 kg at injection.) Ten sites per animal were injected, with approximately 0.5 mL of the dermal filler using graduated syringes.
No treatment was injected in the remaining 10 sites (dermal filler alone). Three to four sites were employed for each treatment in each animal.
Seven days following injection, animals were euthanized. The local tissue effects and degradation of the dermal filler were evaluated macroscopically, 3-D camera, histopathologically, histomorphometrically, and by micro-CT.
The measured data were filtered using a Gaussian filter with finite filter support and filter width. The images were then segmented to separate the implant from the tissue background and the global volume of material was measured.
The signal detected in a CT scan is directly correlated with the density of the material in the sample scanned. […]
Dermal filler degradation was evaluated for each time-period in comparison to the TO site. […]

[5] = In vivo CT of filler nodule volume, density and 3D shape after test solutions 0-8 (Example 3)
Experimental: One hour after filler injections (T=1 h), 1.5 mL of selected solutions (Table 5, solutions 0-8, test items, solution 0 is normal saline and not hyperosmotic) were injected each into 9 dermal filler nodules in the right flank (ventral area).
A total of 7 CT-scans were performed at 1 h 15, 2 h, 4 h, 1 day (24 h), 3, 7 and 14 days after injection of the dermal filler. The clinical state of each animal is assessed once a week by body weight measurement and clinical observations.
The 10 SC injections of dermal filler on Day 0 were performed in the ventral area, (five nodules on each flank of the ventral area) for each pig. For each SC nodule, a theoretical volume of 500 μl was administered. One hour (±5 min) after injection of dermal filler, SC injection of the different solutions (prepared the day before) were performed into nine (9) nodules of dermal. For each SC nodule, a theoretical volume of 1.5 mL of test solution was administered.
The X-ray computed tomography acquisitions were performed with the Computed Tomography Scanner BrightSpeed 16 (General Electric). In order to measure the volume and the mean density and to visualize the 3D shape of the dermal filler (Radiesse® filler with or without test solution) injected, in vivo CT-scans were performed on Day 0: 1 h 15 (±10 min), 2 h (±15 min) and 4 h (±20 min), on Day 1 (24 h+1 h), Day 3, Day 7 and Day 14.
During CT acquisition on Day 0, the pigs received an IM injection of anesthesia. The animals were maintained under anesthesia until the CT acquisition at T=2 h (2 h after dermal filler injection session). Between these CT acquisitions, the animals were under surveillance in the recovery room on a heating mat with fluidotherapy. At the end of the CT acquisition at T=2 h, the pigs received a tattoo around each injected site. During the CT acquisitions at T=4 h and on Days 1, 3, 7 and 14, pigs received an IM injection of anesthesia. For the CT-scans, animals were positioned in dorsal recumbency and acquisitions were centered on the injection sites. The parameters of the CT-scan are described in Table 5.
The CT acquisition was analyzed with the software Avizo version 9.2.0. The objective of this analysis was to assess the degradation over time of the dermal filler injected by SC route after injection of different test solutions.
An image segmentation processing was performed on each CT acquisition. First, a manual pre-segmentation was performed around each nodule in order to roughly isolate the voxels corresponding to dermal filler product, which defined a Region of Interest (ROI). Second, an automatic segmentation was applied on the previously defined ROI using a global grey level thresholding procedure.
On day 0, a farm pig received ten (10) SC injections of Radiesse® dermal filler 0.5 mL (ventral area) (10 nodules in total). One hour after filler injections (T=1 h), 1.5 mL of one of eight test hyperosmotic solutions (1-8 solutions, Table 5) was injected at an injection site. One injection site was untreated and one injection site was treated with normal saline (0.9% wt/v NaCl).

[6] = Quantitative histomorphometric analysis of injection sites (Example 1); format: in vivo, Swine (Sus scrofa domesticus); details: injected area, day 7, mean
Experimental: Histomorphometric analysis was conducted on the 31 sections. Each section was analyzed with a color image analyzing system (Tribvn, France, CALOPIX version 3.2.0) to perform a semi-automatic analysis.
A Test Area was defined in a limited area where the print of the granules of the associated material was clear. This area was defined to evaluate the average area and diameter of each microsphere. A Test Area had to contain between 100 and 300 clearly defined granules to be considered as representative. FIG. 2 illustrates a Test Area in a section.
The injected area was the entire area where material was detected on the slide. The Test Area was part of the injected area.
Quantitative measurements were performed either in the Test Area or in the entire injected area. […]
Implant Area (μm^2) (Test Area): the surface area of granules measured in the Test Area (including any Lacunae Area).
Implant Area (mm^2) (Injected Area): the surface of granules was measured in the entire injected area (including any Lacunae Area). […]
Lacunae Area (mm^2) (Injected Area): the surface of the “Lacunae” Area was measured as defined by the optically empty spaces corresponding to merged granules (no distinct limits between several granules).

[7] = Example 3, mean, listed as Normal Saline (sol 0)

Row | Structure (SMILES) | AM Degradation [2] | Cell or Tissue Degeneration [2] | Encapsulation [2] | Fatty Infiltrate [2] | Fibrin [2] | Fibroblasts [2] | Fibrosis [2] | Giant Cells [2] | Hemorrhage [2] | Lymphocytes [2] | Macrophages [2] | Necrosis [2] | Neovascularization [2] | Plasma Cells [2] | Polymorphonuclear Cells [2] | Tissue Ingrowth [2] | Tissue Integration [2] | particle degradation (change in particle size or surfaces) by EM [3] | Mean diameter [3] [μm] | 25-45 μm [3] [wt %] | also measured
1 | O=S([O-])([O-])=S.[Na+].[Na+] [STS, sodium thiosulfate] | 1.8 | 0.0 | 0.0 | 0.0 | 2.4 | 2.0 | 0.0 | 1.4 | 2.1 | 1.1 | 2.0 | 1.2 | 1.0 | 0.0 | 1.1 | 2.5 | 2.5 | no indication of particle degradation | 29.2 | 93.1 | Radiesse+STS high volume (HU 250-infinity) vs untreated filler by CT ([1]; 90 minutes after injection): very modest temporary increase; Radiesse+STS high density vs untreated filler by CT ([1]; day 7): strong trend for a decrease; filler volume×density/1000 (filler content) in Radiesse+STS high fraction ([1]; day 7): significant decrease of filler; highest HU values of voxel frequency trace ([1]; day 7, untreated filler 450-570 HU): 250-400 HU; number of voxels at 750 HU ([1]; day 7, untreated filler c.a. 70): ~40 voxels; Radiesse-STS (low) volume (0 to 250 HU) by CT ([1]; diluted/dispersed fraction over time): increases with the time between 120 and 240 minutes; appearance of filler in histology slices ([2]; SHE stain, vs Saline treatment or untreated filler): more dispersed (diluted) appearance of filler; fibrin content, hemorrhage and necrosis by histopathology ([2]; seven days): increased fibrin content, hemorrhage and necrosis; inflammation by histopathology ([2]; seven days): decreased inflammation (macrophages, giant cells); amount of filler by histopathology ([2]; seven days, vs Saline treatment and untreated injections): decreased amount of filler; <25 μm [3]: 1.7 wt %; >45 μm [3]: 5.2 wt %; D-ratio [3]: 0.8; effect on dermal filler volume as measured by micro-CT [4]: ≤ 10%
2 | [Cl-].[Na+] [sol 0, Sodium chloride] | 1.0 | 0.0 | 0.0 | 0.0 | 1.7 | 2.0 | 0.0 | 2.0 | 1.1 | 1.3 | 2.4 | 0.1 | 1.0 | 0.0 | 1.0 | 2.5 | 2.5 | no indication of particle degradation | 28.8 | 93.2 | <25 μm [3]: 1.4 wt %; >45 μm [3]: 5.4 wt %; D-ratio [3]: 0.8; Change in Volume as percent of Injected Volume, Day 14/15 ([5]; Example 3 (Day 14), mean, listed as Normal Saline (sol 0)): 187.72%; Change in Volume as percent of Injected Volume, Day 0 + 1 h 15 ([5]; Example 3, mean, 1.5 mL solution into 500 μl nodule, listed as Normal Saline (sol 0)): 155.02%; Change in Volume as percent of Injected Volume, Day 0 + 2 h [5, 7]: 159.42%; Change in Volume as percent of Injected Volume, Day 0 + 4 h [5, 7]: 182.97%; Change in Volume as percent of Injected Volume, Day 1 [5, 7]: 209.66%; Change in Volume as percent of Injected Volume, Day 3 [5, 7]: 215.48%; Change in Volume as percent of Injected Volume, Day 7 [5, 7]: 212.85%; effect on volume at the filler injection site ([5]; after 7 and 14 days, vs untreated, listed as normal saline): does not produce significant decreased volume; Implant area [6]: 19.2 mm^2
